EC50 data for 24 compounds are collected here from patent US20230151037A1, “GPR40 AGONISTS” (Kallyope, Inc., priority 2020, published 2023).

The structures appear in SMILES notation.

This assay deals with T1, human GPR40 (Homo sapiens, UniProt O14842).
T1 construct: host or cells: CHO-K1
T1 sequence (O14842 whole entry): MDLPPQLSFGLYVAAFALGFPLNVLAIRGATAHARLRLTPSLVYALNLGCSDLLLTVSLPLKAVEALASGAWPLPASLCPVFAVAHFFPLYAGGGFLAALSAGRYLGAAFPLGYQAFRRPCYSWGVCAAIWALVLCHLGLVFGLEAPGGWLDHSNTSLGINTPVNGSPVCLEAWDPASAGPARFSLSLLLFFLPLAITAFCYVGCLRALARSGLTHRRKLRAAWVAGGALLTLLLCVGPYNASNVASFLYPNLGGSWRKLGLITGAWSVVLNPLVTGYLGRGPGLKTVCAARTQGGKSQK
Nature of the assay: Inositol phosphate accumulation assay (IP1 HTRF) in CHO-K1 cells expressing human GPR40. The class given is cell-based. The conditions noted are these: 90 min. The protocol: CHO-K1 cells expressing human GPR40 were purchased from DiscoverX (95-1005C2). HEK293 cells expressing mouse FFAR1 were prepared using a mouse FFAR1 carrying plasmid purchased from OriGene Technologies (MR222997). The cells were transfected using Lipofectamine 2000 using manufacturer instructions and stable cell line was established from a single cell using geneticine selection. Assay ready frozen (ARF) cells were prepared and used throughout the study.
The assay was performed in a 384-well plate format using IP1 assay kit from Cis-Bio. ARF cells expressing FFAR1 (mouse and human) were thawed, washed and then plated in the appropriate medium (F12 based medium for CHO hFFAR1 and DMEM based medium for HEK293 mFFAR1-both were supplemented with 10% FBS and penicillin/streptomycin). 20 μL of 3.5×10^5 cells/mL were plated on a Poly D-Lysine coated 384-well white plate. The cells were then incubated for 16 hr at 37° C./5% CO2. After 16 hr the medium was removed and 15 μL of stimulation buffer containing the test compounds was added to the cells. The plates were then incubated for 90 min at 37° C./5% CO2. 5 μL of detection buffer (prepared as described in the IP-one kit) was added to each well and the plates were incubated at RT for 1 hr.
[…] was measured using ClarioSTAR plate reader, calculating the ratio between emissions at 665 nm and 620 nm (HTRF ratio). HTRF ratio for positive (Max) and negative (Min) controls were used to normalize HTRF data and generate values for % activity. EC50 and Max activity values were determined using a standard 4-parameter fit.
In general terms: TR-FRET usually uses a lanthanide donor and a delayed reading to cut background.
Take `COc1cc(-c2ccc(OCc3cccc(C(CP(C)(=O)O)C4CC4)c3)cc2CN(C(C)C)C(C)C)c(F)cn1` (stereo not drawn) [Compound 21, (2-cyclopropyl-2-(3-((3-((diisopropylamino)methyl)-4-(5-fluoro-2-methoxypyridin-4-yl)phenoxy)methyl)phenyl)ethyl)(methyl)phosphinic acid]: the EC50 (in general, the concentration needed to bring the measured effect to its halfway point) was 50 to 250 nM.
With `COc1cc(-c2ccc(COc3cccc(C[C@@H](C)P(C)(=O)O)c3)cc2[C@@H](OC)C(C)(C)C)c(F)cn1` [Compound 41, ((R)-1-(3-((4-(5-fluoro-2-methoxypyridin-4-yl)-3-((S)-1-methoxy-2,2-dimethylpropyl)benzyl)oxy)phenyl)propan-2-yl)(methyl)phosphinic acid] the figure was ≤ 50 nM.
On to `COc1cc(-c2ccc(COc3cc([C@@H](CP(C)(=O)O)C4CC4)ccn3)cc2[C@@H](OC)C(C)(C)C)c(F)cn1` [Compound 28, ((S)-2-cyclopropyl-2-(2-((4-(5-fluoro-2-methoxypyridin-4-yl)-3-((S)-1-methoxy-2,2-dimethylpropyl)benzyl)oxy)pyridin-4-yl)ethyl)(methyl)phosphinic acid], for which the EC50 is ≤ 50 nM.
With `CCC(C[PH](=O)O)c1cccc(OCc2ccc(-c3cc(OC)ncc3F)c(CN(C(C)C)C(C)C)c2)c1` (stereo not drawn) [Compound 23, (2-(3-((3-((diisopropylamino)methyl)-4-(5-fluoro-2-methoxypyridin-4-yl)benzyl)oxy)phenyl)butyl)phosphinic acid] the figure was > 1000 nM; with `CO[C@H](c1cc(COc2cccc([C@@H](CP(C)(=O)O)C3CC3)c2)ccc1-c1cc(O)ccc1F)C(C)(C)C` [Compound 26, ((S)-2-cyclopropyl-2-(3-((2′-fluoro-5′-hydroxy-2-((S)-1-methoxy-2,2-dimethylpropyl)-[1,1′-biphenyl]-4-yl)methoxy)phenyl)ethyl)(methyl)phosphinic acid], ≤ 50 nM; with `COc1cc(-c2ccc(COc3cc(C(C)CP(C)(=O)O)ccn3)cc2CN(C(C)C)C(C)C)c(F)cn1` (single isomer, unassigned) [Compound 39, ((R)-2-(2-((3-((diisopropylamino)methyl)-4-(5-fluoro-2-methoxypyridin-4-yl)benzyl)oxy)pyridin-4-yl)propyl)(methyl)phosphinic acid or ((S)-2-(2-((3-((diisopropylamino)methyl)-4-(5-fluoro-2-methoxypyridin-4-yl)benzyl)oxy)pyridin-4-yl)propyl)(methyl)phosphinic acid], > 1000 nM.
Regarding `COc1ccc(F)c(-c2ccc(COc3cc(C(C)CP(C)(=O)O)ccn3)cc2[C@@H](OC)C(C)(C)C)c1` (single isomer, unassigned) [Compound 40, ((R)-2-(2-((2′-fluoro-5′-methoxy-2-((S)-1-methoxy-2,2-dimethylpropyl)-[1,1′-biphenyl]-4-yl)methoxy)pyridin-4-yl)propyl)(methyl)phosphinic acid or ((S)-2-(2-((2′-fluoro-5′-methoxy-2-((S)-1-methoxy-2,2-dimethylpropyl)-[1,1′-biphenyl]-4-yl)methoxy)pyridin-4-yl)propyl)(methyl)phosphinic acid], the EC50 is ≤ 50 nM.
On to `COc1ccc(F)c(-c2ccc(COc3cccc(C(C)CP(C)(=O)O)c3)cc2[C@@H](OC)C(C)(C)C)c1` (single isomer, unassigned) [Compound 33], for which the EC50 is ≤ 50 nM.
Regarding `COc1cc(-c2ccc(COc3cccc(C(C)CP(C)(=O)O)c3)cc2[C@@H](OC)C(C)(C)C)c(F)cn1` (stereo partly drawn) [Compound 34, (2-(3-((4-(5-fluoro-2-methoxypyridin-4-yl)-3-((S)-1-methoxy-2,2-dimethylpropyl)benzyl)oxy)phenyl)propyl)(methyl)phosphinic acid], the EC50 was ≤ 50 nM.
As to `COc1cc(-c2ccc(COc3cccc(C(CP(C)(=O)O)C4CC4)c3)cc2CN(C(C)C)C(C)C)c(F)cn1` (single isomer, unassigned) [Compound 10, (2-cyclopropyl-2-(3-((3-((diisopropylamino)methyl)-4-(5-fluoro-2-methoxypyridin-4-yl)benzyl)oxy)phenyl)ethyl)(methyl)phosphinic acid], the EC50 lay within 50 to 250 nM.
With `COc1cc(-c2ccc(COc3cccc(C(CS(=O)(=O)O)C4CC4)c3)cc2CN(C(C)C)C(C)C)c(F)cn1` (single isomer, unassigned) [Compound 15, 2-cyclopropyl-2-(3-((3-((diisopropylamino)methyl)-4-(5-fluoro-2-methoxypyridin-4-yl)benzyl)oxy)phenyl)ethanesulfonic acid] the figure was > 1000 nM; with `COc1cc(-c2ccc(COc3cc(C(C)CP(C)(=O)O)ccn3)cc2[C@@H](OC)C(C)(C)C)c(F)cn1` (single isomer, unassigned) [Compound 38], ≤ 50 nM.
With `CCP(=O)(O)CC(c1cccc(OCc2ccc(-c3cc(OC)ncc3F)c(CN(C(C)C)C(C)C)c2)c1)C1CC1` (single isomer, unassigned) [Compound 17, (2-cyclopropyl-2-(3-((3-((diisopropylamino)methyl)-4-(5-fluoro-2-methoxypyridin-4-yl)benzyl)oxy)phenyl)ethyl)(ethyl)phosphinic acid], the EC50 was > 1000 nM.
With `COc1ccc(F)c(-c2ccc(COc3cccc(C(C)CP(C)(=O)O)c3)cc2[C@@H](OC)C(C)(C)C)c1` (single isomer, unassigned) [Compound 32] the figure was ≤ 50 nM; with `COc1cc(-c2ccc(COc3cccc(C(C4CC4)C(C)P(=O)(O)O)c3)cc2CN(C(C)C)C(C)C)c(F)cn1` (stereo not drawn) [Compound 6, (1-cyclopropyl-1-(3-((3-((diisopropylamino)methyl)-4-(5-fluoro-2-methoxypyridin-4-yl)benzyl)oxy)phenyl)propan-2-yl)phosphonic acid], > 1000 nM; with `CCP(=O)(O)CC(c1cccc(OCc2ccc(-c3cc(OC)ncc3F)c(CN(C(C)C)C(C)C)c2)c1)C1CC1` (single isomer, unassigned) [Compound 20, (2-cyclopropyl-2-(3-((3-((diisopropylamino)methyl)-4-(5-fluoro-2-methoxypyridin-4-yl)benzyl)oxy)phenyl)ethyl)(ethyl)phosphinic acid], > 1000 nM.
Regarding `COc1cc(-c2ccc(COc3cccc(C(CS(=O)(=O)O)C4CC4)c3)cc2CN(C(C)C)C(C)C)c(F)cn1` (stereo not drawn) [Compound 1, 2-cyclopropyl-2-(3-((3-((diisopropylamino)methyl)-4-(5-fluoro-2-methoxypyridin-4-yl)benzyl)oxy)phenyl)ethanesulfonic acid], the EC50 was > 1000 nM.
For the compound `COc1cc(-c2ccc(COc3cccc(C(CP(C)(=O)O)C4CC4)c3)cc2CN(C(C)C)C(C)C)c(F)cn1` (single isomer, unassigned) [Compound 12, (2-cyclopropyl-2-(3-((3-((diisopropylamino)methyl)-4-(5-fluoro-2-methoxypyridin-4-yl)benzyl)oxy)phenyl)ethyl)(methyl)phosphinic acid], the EC50 was > 1000 nM.
For `COc1cc(-c2ccc(COc3cc(C(C)CP(C)(=O)O)ccn3)cc2[C@@H](OC)C(C)(C)C)c(F)cn1` (single isomer, unassigned) [Compound 37], the EC50 was ≤ 50 nM.
For the compound `CO[C@H](c1cc(COc2cc([C@@H](CP(C)(=O)O)C3CC3)ccn2)ccc1-c1cc(O)ccc1F)C(C)(C)C` [Compound 31, ((S)-2-cyclopropyl-2-(2-((2′-fluoro-5′-hydroxy-2-((S)-1-methoxy-2,2-dimethylpropyl)-[1,1′-biphenyl]-4-yl)methoxy)pyridin-4-yl)ethyl)(methyl)phosphinic acid], the EC50 was ≤ 50 nM.
For `COc1ccc(F)c(-c2ccc(COc3cc([C@@H](CP(C)(=O)O)C4CC4)ccn3)cc2[C@@H](OC)C(C)(C)C)c1` [Compound 27, ((S)-2-cyclopropyl-2-(2-((2′-fluoro-5′-methoxy-2-((S)-1-methoxy-2,2-dimethylpropyl)-[1,1′-biphenyl]-4-yl)methoxy)pyridin-4-yl)ethyl)(methyl)phosphinic acid], the EC50 was ≤ 50 nM.
Take `CCP(=O)(O)CC(c1cccc(OCc2ccc(-c3cc(OC)ncc3F)c(CN(C(C)C)C(C)C)c2)c1)C1CC1` (single isomer, unassigned) [Compound 18, (2-cyclopropyl-2-(3-((3-((diisopropylamino)methyl)-4-(5-fluoro-2-methoxypyridin-4-yl)benzyl)oxy)phenyl)ethyl)(ethyl)phosphinic acid]: the EC50 is > 1000 nM.
With `COc1cc(-c2ccc(COc3cccc(C(CP(=O)(O)O)C4CC4)c3)cc2CN(C(C)C)C(C)C)c(F)cn1` (stereo not drawn) [Compound 8, (2-cyclopropyl-2-(3-((3-((diisopropylamino)methyl)-4-(5-fluoro-2-methoxypyridin-4-yl)benzyl)oxy)phenyl)ethyl)phosphonic acid] the figure was > 1000 nM; with `COc1cc(-c2ccc(COc3cccc([C@H](C4CC4)[C@@](C)(F)C(=O)NS(C)(=O)=O)c3)cc2CN(C(C)C)C(C)C)c(F)cn1` [Compound 4, (2R,3S)-3-cyclopropyl-3-(3-((3-((diisopropylamino)methyl)-4-(5-fluoro-2-methoxypyridin-4-yl)benzyl)oxy)phenyl)-2-fluoro-2-methyl-N-(methylsulfonyl)propanamide], ≤ 50 nM.
